This note sets out measurements from ChEMBL document CHEMBL4014275, “Discovery of benzofuran-3(2H)-one derivatives as novel DRAK2 inhibitors that protect islet β-cells from apoptosis” (Eur J Med Chem, 2017).

For orientation: IC50 means the point on the concentration scale where inhibition reaches its midpoint. The term Kd denotes the concentration at which binding is half-saturated. Read a low Kd as a tighter complex.

Experiment [1] has as its target T1, Aurora kinase A (Homo sapiens, UniProt O14965).
T1 sequence (O14965 whole entry): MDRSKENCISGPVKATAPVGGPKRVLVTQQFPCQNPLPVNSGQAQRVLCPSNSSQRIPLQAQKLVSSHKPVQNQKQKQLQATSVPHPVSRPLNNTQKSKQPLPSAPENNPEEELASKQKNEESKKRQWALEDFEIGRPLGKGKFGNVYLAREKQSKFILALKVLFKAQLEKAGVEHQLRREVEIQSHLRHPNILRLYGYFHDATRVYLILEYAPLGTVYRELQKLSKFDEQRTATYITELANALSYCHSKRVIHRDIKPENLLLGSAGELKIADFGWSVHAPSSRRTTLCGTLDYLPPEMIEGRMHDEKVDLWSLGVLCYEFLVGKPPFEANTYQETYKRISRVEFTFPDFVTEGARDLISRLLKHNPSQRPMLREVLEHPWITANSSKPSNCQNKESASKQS
In words: Inhibition of human AURORA-A.

Experiment [2] has as its target T2, Inhibitor of nuclear factor kappa-B kinase subunit beta (Homo sapiens, UniProt O14920).
T2 sequence (O14920 whole entry): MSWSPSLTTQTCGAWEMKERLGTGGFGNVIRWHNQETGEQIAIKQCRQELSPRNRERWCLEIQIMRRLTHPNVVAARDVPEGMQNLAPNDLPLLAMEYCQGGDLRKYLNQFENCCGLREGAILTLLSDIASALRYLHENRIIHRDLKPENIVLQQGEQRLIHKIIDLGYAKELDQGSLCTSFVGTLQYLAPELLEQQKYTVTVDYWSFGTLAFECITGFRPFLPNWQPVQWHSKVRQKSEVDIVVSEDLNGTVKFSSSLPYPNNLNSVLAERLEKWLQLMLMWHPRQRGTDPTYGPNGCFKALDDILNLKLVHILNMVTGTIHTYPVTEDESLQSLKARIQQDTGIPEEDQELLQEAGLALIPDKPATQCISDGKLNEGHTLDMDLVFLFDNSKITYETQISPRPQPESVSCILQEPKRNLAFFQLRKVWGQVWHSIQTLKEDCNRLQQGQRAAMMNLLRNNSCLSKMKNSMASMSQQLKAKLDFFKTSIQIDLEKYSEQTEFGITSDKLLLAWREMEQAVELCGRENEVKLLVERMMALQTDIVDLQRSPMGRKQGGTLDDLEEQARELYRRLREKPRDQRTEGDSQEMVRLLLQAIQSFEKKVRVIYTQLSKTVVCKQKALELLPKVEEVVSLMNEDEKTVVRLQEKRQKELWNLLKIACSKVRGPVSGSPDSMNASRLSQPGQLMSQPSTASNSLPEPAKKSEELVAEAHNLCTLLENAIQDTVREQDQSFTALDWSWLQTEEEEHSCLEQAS
The experiment can be described thus: Inhibition of human IKKB.

The target of experiment [3] is T3, Serine/threonine-protein kinase 17B (Homo sapiens, UniProt O94768).
T3 sequence (O94768 whole entry): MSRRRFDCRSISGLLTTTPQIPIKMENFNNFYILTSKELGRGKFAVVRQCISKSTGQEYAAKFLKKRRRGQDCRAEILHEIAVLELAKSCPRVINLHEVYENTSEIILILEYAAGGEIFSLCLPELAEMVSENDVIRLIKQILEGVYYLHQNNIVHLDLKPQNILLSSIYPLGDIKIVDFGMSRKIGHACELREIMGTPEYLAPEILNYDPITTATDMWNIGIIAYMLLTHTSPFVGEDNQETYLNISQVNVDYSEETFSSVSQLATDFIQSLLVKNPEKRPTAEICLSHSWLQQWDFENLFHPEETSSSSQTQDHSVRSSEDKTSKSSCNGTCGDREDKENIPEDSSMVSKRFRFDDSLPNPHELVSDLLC
The experiment can be described thus: Inhibition of recombinant GST-tagged DRAK2 (unknown origin) autophosphorylation after 2 hrs by ADP-glo assay. (In general: In ADP-Glo the light output rises with the ADP produced.)

Experiment [4] concerns the target Death-associated protein kinase 2 (Homo sapiens, UniProt Q9UIK4). The experiment can be described thus: Inhibition of human DAPK2.
For experiment [5], the target named is Glycogen synthase kinase-3 beta (Homo sapiens, UniProt P49841). In words: Inhibition of human GSK3beta.
In experiment [6] the target is Tyrosine-protein kinase Blk (Homo sapiens, UniProt P51451). The experiment can be described thus: Inhibition of human BLK.
In experiment [7] the target is Death-associated protein kinase 3 (Homo sapiens, UniProt O43293). The experiment can be described thus: Inhibition of human DAPK3.
The target in experiment [8] is Tyrosine-protein kinase BTK (Homo sapiens, UniProt Q06187). In words: Inhibition of human BTK.
For experiment [9], the target named is T4, Serine/threonine-protein kinase 17A (Homo sapiens, UniProt Q9UEE5).
T4 sequence (Q9UEE5 whole entry): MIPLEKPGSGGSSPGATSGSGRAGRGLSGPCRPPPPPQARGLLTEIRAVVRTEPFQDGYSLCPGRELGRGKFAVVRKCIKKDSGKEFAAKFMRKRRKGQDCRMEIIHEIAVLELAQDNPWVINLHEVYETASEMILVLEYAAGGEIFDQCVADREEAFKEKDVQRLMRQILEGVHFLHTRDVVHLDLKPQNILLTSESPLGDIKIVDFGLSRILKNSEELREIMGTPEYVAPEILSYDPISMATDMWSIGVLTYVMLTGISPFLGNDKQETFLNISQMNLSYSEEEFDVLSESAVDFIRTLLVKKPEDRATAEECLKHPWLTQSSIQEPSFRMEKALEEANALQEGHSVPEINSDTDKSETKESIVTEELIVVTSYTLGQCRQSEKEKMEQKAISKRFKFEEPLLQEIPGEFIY
In words: Inhibition of human DRAK1.

Experiment [10] addresses T3, Serine/threonine-protein kinase 17B. In words: Inhibition of DRAK2 (unknown origin).
Experiment [11] has as its target T4, Serine/threonine-protein kinase 17A. The experiment can be described thus: Binding affinity to DRAK1 (unknown origin).
For experiment [12], the target named is Death-associated protein kinase 1 (Homo sapiens, UniProt P53355). The experiment can be described thus: Binding affinity to DAPK1 (unknown origin).
Chain of Death-associated protein kinase 1 (P53355 whole entry): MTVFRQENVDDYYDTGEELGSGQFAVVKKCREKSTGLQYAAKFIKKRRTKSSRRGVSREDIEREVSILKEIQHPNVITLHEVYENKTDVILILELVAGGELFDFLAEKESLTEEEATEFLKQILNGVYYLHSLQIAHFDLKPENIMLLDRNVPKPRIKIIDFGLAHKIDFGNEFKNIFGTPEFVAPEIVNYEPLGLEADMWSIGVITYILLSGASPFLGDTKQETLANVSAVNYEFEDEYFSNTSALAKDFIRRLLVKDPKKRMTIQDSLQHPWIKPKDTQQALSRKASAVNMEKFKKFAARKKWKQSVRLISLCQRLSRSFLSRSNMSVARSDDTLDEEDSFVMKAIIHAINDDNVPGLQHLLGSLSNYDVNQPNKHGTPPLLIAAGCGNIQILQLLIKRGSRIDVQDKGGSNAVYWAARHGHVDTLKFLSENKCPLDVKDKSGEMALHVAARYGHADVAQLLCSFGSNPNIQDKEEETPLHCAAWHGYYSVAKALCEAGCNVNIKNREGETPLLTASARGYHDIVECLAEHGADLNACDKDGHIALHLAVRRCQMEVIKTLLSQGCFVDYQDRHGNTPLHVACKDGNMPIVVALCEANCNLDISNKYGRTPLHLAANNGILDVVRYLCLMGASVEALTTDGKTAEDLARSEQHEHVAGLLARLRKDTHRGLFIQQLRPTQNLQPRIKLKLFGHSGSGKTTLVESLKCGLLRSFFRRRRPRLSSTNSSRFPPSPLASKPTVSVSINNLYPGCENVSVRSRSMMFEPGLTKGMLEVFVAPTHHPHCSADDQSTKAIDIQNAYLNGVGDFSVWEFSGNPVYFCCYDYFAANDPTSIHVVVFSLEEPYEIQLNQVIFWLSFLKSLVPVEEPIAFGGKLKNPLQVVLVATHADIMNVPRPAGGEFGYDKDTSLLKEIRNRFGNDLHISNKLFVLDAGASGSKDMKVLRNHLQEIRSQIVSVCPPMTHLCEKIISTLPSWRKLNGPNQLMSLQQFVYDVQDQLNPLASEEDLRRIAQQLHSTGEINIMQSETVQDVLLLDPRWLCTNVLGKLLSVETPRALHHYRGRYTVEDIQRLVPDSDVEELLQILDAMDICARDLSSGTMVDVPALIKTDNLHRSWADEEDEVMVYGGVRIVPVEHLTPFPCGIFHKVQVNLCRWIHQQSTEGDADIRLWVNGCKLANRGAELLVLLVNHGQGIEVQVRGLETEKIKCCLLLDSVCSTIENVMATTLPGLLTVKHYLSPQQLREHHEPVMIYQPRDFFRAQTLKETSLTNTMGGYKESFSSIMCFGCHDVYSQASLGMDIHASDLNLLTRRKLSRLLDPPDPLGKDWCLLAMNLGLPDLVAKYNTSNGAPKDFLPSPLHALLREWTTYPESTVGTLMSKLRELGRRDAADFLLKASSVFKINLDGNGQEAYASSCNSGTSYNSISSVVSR

Chain of Tyrosine-protein kinase BTK (Q06187 whole entry): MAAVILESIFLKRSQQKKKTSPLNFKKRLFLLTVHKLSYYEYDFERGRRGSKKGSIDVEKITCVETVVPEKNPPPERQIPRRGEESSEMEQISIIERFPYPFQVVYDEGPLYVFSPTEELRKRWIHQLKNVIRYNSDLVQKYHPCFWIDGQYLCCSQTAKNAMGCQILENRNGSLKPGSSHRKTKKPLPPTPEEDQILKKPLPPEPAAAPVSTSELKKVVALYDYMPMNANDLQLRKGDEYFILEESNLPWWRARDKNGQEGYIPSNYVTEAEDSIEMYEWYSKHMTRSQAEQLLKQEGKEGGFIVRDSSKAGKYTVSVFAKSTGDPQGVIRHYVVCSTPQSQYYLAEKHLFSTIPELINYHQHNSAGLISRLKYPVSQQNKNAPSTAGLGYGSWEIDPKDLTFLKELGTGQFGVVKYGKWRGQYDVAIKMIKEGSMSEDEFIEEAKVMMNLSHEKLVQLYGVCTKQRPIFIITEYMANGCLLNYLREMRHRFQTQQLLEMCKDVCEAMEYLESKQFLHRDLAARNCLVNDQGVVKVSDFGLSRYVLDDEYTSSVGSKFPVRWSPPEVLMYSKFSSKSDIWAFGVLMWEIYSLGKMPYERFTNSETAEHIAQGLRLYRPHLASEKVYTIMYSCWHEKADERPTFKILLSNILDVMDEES
Chain of Death-associated protein kinase 3 (O43293 whole entry): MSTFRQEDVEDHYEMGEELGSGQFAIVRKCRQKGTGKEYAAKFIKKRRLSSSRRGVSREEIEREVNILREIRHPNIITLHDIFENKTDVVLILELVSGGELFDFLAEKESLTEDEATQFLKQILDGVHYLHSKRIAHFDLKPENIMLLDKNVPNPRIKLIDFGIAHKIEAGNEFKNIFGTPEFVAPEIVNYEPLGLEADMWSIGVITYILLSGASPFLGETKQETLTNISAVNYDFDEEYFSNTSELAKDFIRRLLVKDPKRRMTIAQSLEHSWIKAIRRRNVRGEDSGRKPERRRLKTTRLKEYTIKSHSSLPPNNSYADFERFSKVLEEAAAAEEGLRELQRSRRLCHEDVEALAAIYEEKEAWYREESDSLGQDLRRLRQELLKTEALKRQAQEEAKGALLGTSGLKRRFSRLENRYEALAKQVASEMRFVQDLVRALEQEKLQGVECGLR
Chain of Death-associated protein kinase 2 (Q9UIK4 whole entry): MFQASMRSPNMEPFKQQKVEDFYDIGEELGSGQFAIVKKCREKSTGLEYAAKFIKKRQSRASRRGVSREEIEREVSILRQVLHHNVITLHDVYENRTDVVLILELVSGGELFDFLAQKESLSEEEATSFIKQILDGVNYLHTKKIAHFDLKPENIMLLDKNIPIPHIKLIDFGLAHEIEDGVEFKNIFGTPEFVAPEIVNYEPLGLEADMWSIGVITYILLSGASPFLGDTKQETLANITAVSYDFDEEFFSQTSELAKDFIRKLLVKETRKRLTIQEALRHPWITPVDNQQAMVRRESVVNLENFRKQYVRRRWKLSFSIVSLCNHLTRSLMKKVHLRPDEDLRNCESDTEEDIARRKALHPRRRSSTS
Chain of Tyrosine-protein kinase Blk (P51451 whole entry): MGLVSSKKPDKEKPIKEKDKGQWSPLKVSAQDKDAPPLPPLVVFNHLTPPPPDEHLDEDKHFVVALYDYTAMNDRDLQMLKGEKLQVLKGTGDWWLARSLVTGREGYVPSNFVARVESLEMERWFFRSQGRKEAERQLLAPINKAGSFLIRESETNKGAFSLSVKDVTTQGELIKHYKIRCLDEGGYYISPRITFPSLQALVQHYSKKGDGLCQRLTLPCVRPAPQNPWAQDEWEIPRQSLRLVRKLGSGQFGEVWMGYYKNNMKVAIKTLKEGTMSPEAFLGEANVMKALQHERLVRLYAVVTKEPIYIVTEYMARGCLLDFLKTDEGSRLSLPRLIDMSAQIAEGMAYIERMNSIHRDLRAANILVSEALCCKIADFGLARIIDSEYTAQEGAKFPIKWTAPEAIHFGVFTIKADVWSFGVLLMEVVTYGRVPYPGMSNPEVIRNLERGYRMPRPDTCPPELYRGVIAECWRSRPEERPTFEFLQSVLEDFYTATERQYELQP
Chain of Glycogen synthase kinase-3 beta (P49841 whole entry): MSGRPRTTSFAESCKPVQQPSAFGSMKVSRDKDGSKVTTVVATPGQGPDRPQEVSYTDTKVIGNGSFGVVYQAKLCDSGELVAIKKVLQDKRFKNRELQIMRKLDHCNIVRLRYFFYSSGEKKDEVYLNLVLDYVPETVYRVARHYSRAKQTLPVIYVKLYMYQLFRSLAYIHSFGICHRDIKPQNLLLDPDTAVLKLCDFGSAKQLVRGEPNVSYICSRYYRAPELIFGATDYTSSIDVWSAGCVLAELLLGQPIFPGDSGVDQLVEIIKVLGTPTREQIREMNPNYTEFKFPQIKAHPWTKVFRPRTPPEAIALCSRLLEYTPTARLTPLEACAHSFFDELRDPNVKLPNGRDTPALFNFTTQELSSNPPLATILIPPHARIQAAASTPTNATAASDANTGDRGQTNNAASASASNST

Regarding `CCOc1cc(/C=C2\Oc3ccc(OC)cc3C2=O)ccc1O`, the IC50 in experiment [1] is 9.92 µM; in [2], 6.23 µM; in [3], 0.33 µM; in experiment [4] it was 22.7 µM; in experiment [5] it was 5.01 µM; in experiment [6], 5.26 µM. Further, the IC50 turned out to be 18.9 µM in experiment [7], 5 µM in experiment [8] and 1.41 µM in experiment [9].
On to `Nc1c(-c2n[nH]c(=S)o2)sc2ncc(-c3ccsc3)cc12`, for which the IC50 in experiment [10] turned out to be 0.029 µM. For the same compound, the Kd in experiment [11] is 0.099 µM; in experiment [12] it was 0.054 µM.
